{"source": "patent US20190046469A1", "about": "“COMPOSITIONS AND METHODS FOR TREATING MOOD DISORDERS OR SKIN DISEASE OR DAMAGE” (priority 2012, published 2019)", "key": {"[1]": {"test_system": "OXT (Homo sapiens oxytocin/neurophysin I prepropeptide mRNA, NM_000915)", "assay": "Full thickness tissue DNA microarray screening, OXT gene expression", "type": "cell-based", "description": "(§1) DNA microarrays were used to screen xanthohumol for changes in the expression of thousands of different genes. DNA microarrays are extremely powerful tools that allow users to analyze changes in gene expression by monitoring changes in the messenger ribonucleic acid (“mRNA”) of hundreds to thousands of genes in a single experiment. All cells function by using their genes to make protein products. This process starts by making an mRNA copy of the gene through a process called transcription. The mRNA copy is then translated into a protein that plays a functional role within the cell or the cell's environment. Since the process of gene expression is highly regulated, the amount of mRNA can be a good indicator of the level of activity for a specific gene. With the introduction of DNA microarrays, researchers can now rapidly obtain a much more global view of what is happening inside of a cell since the results of one or two array experiments can potentially generate data on changes in gene expression across the entire known human genome.\n(§2) This would result in a ratio of 1. If a treatment increases the expression of a gene, then the median intensity of the feature would be greater in the scan from the red laser than the green, resulting in a ration that is greater than 1. […] These broader ranges are a more conservative judging criterion and account for possible sources of variation in fluorescence intensity that are not associated with the treatment.\n(§3) In addition to the information on active ingredients and raw materials that the DNA microarray can provide, the arrays can be used to better characterize the mechanisms of action related to certain therapeutic categories. The array data also allows the verification that a gene of interest is expressed in a certain model before running an experiment. The following tables provide the data based on the ratio of means after 50 μL of a xanthohumol liquid formulation with a concentration of 5 mg/ml xanthohumol was used in the following experiment. RNA was isolated from the tissues for subsequent analysis via DNA microarrays."}, "[2]": {"test_system": "OXTR (Homo sapiens oxytocin receptor mRNA, NM_000916)", "assay": "Full thickness tissue DNA microarray screening, OXTR gene expression", "type": "cell-based", "description": "as §1, §2, §3"}, "[3]": {"details": "50 μL of xanthohumol liquid formulation, 5 mg/ml, full thickness tissue, >=1.3 up-regulated, <=0.7 down-regulated"}, "[4]": {"details": "50 μL of xanthohumol liquid formulation, 5 mg/ml, green laser scan"}, "[5]": {"details": "50 μL of xanthohumol liquid formulation, 5 mg/ml, red laser scan (treated)"}, "[6]": {"details": "ratio of means above 1.3 = up-regulated"}}}
{"smiles": "COc1cc(O)c(CC=C(C)C)c(O)c1C(=O)/C=C/c1ccc(O)cc1", "note": "[xanthohumol]", "values": [{"measurement": "Ratio of Means (OXT)", "setting": "[1]; [3]", "value": 2.488}, {"measurement": "F532 Median (OXT)", "setting": "[1]; [4]", "value": 78}, {"measurement": "F635 Median (OXT)", "setting": "[1]; [5]", "value": 171}, {"measurement": "regulation of OXT gene (in words)", "setting": "[1]; [6]", "value": "significantly up-regulated"}, {"measurement": "Ratio of Means (OXTR)", "setting": "[2]; [3]", "value": 3.5}, {"measurement": "F532 Median (OXTR)", "setting": "[2]; [4]", "value": 43}, {"measurement": "F635 Median (OXTR)", "setting": "[2]; [5]", "value": 53}, {"measurement": "up-regulation of OXTR", "setting": "[2]; DNA microarray", "value": "greater than 50%"}, {"measurement": "regulation of OXTR gene (in words)", "setting": "[2]; [6]", "value": "significantly up-regulated"}]}
